Reference: patent US20240082331A1, “ANTI-OBESITY COMPOSITION CONTAINING, AS ACTIVE INGREDIENT, MORINGA OLEIFERA FERMENTATION PRODUCT PREPARED USING NOVEL MONASCUS PURPUREUS SL1” (MBIOMETHERAPEUTICS CO., LTD., priority 2021, published 2024)

Test system: 3T3-L1 preadipocytes
Assay: Inhibition of adipocyte differentiation (AdipoRed assay)
Format: cell-based, mice
Details: FIG. 3
Protocol: Preadipocytes (3T3-L1) from mice were purchased from ATCC (American Type Culture Collection). DMEM culture medium, Trypsin/EDTA, FBS (fetal bovine serum), and BCS (Bovine calf serum) were purchased from Gibco (Invitrogen corporation). AdipoRed assay reagent for measurement was purchased from Cambrex. Specifically, 3T3-L1 preadipocytes were cultured in DMEM medium containing 10% BCS and antibiotics, and maintained in a CO 2 incubator with 5% carbon dioxide supply. The cells were seeded at a concentration of 1×10^6 cells in a 96-well plate and cultured until they reached 100% confluency. To measure adipocyte differentiation, the cells were treated with MD medium (0.5 mM 3-isobutyl-1-methylxanthine and 1 μM dexamethasone). After 2 days, the medium was replaced with DMEM medium containing 10% FBS, and further cultured for 6 days. Moringa powder and fermented Moringa extract were treated at various concentrations. […] After 10 minutes, fluorescence intensity was measured using a fluorescence intensity reader. Subsequently, the inhibitory effect on adipocyte differentiation in the six compounds isolated in Example 2 was measured. […]

CC(=O)OC[C@H]1O[C@@H](Oc2c(-c3ccc(O)cc3)oc3cc(O)cc(O)c3c2=O)[C@H](O)[C@@H](O)[C@@H]1O [MOFE-16-5, 6″-O-acetyl astragalin]
adipocyte differentiation inhibition activity of isolated compounds: excellent adipocyte differentiation inhibition activity
